Experimental findings from PubChem BioAssay (NCI) are described below.

Assay in all cases: DTP human tumour cell line panel, 48 h
Test [1] has as its system ACHN renal.
The test system of test [2] is CCRF-CEM leukemia.
The test system of test [3] is EKVX NSCLC.
The test system of test [4] is HCT-116 colon.
In test [5] the test system is NCI/ADR-RES ovarian.
Test [6] relates to OVCAR-3 ovarian.
Test [7] deals with OVCAR-5 ovarian.
The test system of test [8] is PC-3 prostate.
The test system of test [9] is SNB-19 CNS.
Test [10] deals with SNB-75 CNS.
Test [11] relates to TK-10 renal.

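Exposure lasted 48 hours, with cells grown in 96-well plates and compounds tested at five concentrations. The concentration for 50% growth inhibition is given as GI50. At the TGI there is no net growth.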

Take `CC1(C)O[C@@H]2[C@@H]3OC(=O)C[C@@H]3[C@@H](COCc3ccccc3)[C@@H]2O1`: the TGI in test [1], in test [2], in test [3], in test [4], in test [5] and in test [6] was above 100 µM in each case. The TGI in test [7], in [8], in test [9], in test [10] and in test [11] was above 100 µM in each case.

For the compound `COC(=O)CCC(=O)c1ccc2c(c1)CC1(C2)Cc2ccc3c(c2C1)CCCC3=O` (stereo not drawn), the concentration for total growth inhibition (TGI) in test [1] is above 70.2 µM; in test [2], 11 µM; in test [3], above 100 µM; in [4] it was above 100 µM; in test [5], above 100 µM; in [6], 47.7 µM. In addition, the TGI was above 100 µM in test [7]; above 79.9 µM in test [8]; above 100 µM in test [9]; above 100 µM in test [10]; above 100 µM in [11].

For the compound `O=C(O)c1cc(Sc2ccc([N+](=O)[O-])c(C(=O)O)c2)ccc1[N+](=O)[O-]`, the TGI in [1], in test [2], in test [3], in test [4], in [5] and in test [6] was above 100 µM throughout. For the same compound, the concentration for total growth inhibition (TGI) in test [7], in test [8], in [9], in test [10] and in [11] was above 100 µM throughout. The GI50 in test [10] was above 100 µM.

For the compound `COc1ccc(-c2nnc(CCCCCCCCc3nnc(-c4ccc(OC)cc4)o3)o2)cc1`, the TGI in test [1], in test [2], in test [3], in [4], in test [5] and in [6] was above 100 µM in each case. In addition, the TGI is above 100 µM in test [7]; above 100 µM in test [8]; above 100 µM in test [9]; 93.6 µM in [10]; above 100 µM in [11].

In the case of `Cc1nc2c(ncn2CCO)c(=O)[nH]1`, the TGI in test [1], in test [2], in [3], in test [4], in test [5] and in [6] was above 100 µM throughout. The TGI in [7], in test [8], in test [9], in [10] and in [11] was above 100 µM each time.

On to `CCCCOC(=O)C1CN2C(=NC1(C(F)(F)F)C(F)(F)F)Sc1ccccc12` (stereo not drawn), for which the TGI in [1], in test [2], in test [3], in [4], in test [5] and in test [6] was above 100 µM in each case. Besides, the TGI in test [7] was above 100 µM; in [8] it was 42.4 µM; in test [9] it was above 100 µM; in [10], above 100 µM; in [11], above 100 µM.

Regarding `Cc1c2cccc-2c(OCCO)cc2c1[nH]c1ccccc12`, the TGI in [1] is 2.72 µM; in test [2] it was above 29.6 µM; in test [3], 5.18 µM; in [4], above 23.2 µM; in test [5], above 23.4 µM; in [6], 3.75 µM. Moreover, the concentration for total growth inhibition (TGI) came out at 5.83 µM in test [7]; 7.89 µM in [8]; 18.6 µM in test [9]; 3.95 µM in test [10]; 14.2 µM in test [11].

On to `COC(Cc1ccccc1)NC(C)=O` (stereo not drawn), for which the TGI in [1], in test [2], in test [3], in [4], in [5] and in test [6] was above 100 µM in each case. For the same compound, the TGI in test [7], in test [8], in test [9], in [10] and in [11] was above 100 µM in each case.

`COC(=O)[C@@H]1C[C@]2(CC=C(C)C)c3ccccc3N(S(=O)(=O)c3ccccc3)[C@@H]2N1C(=O)OC`: the concentration for total growth inhibition (TGI) in [1] was above 100 µM; in test [2], above 100 µM; in test [3], 27.5 µM; in test [4], above 100 µM; in test [5], 83.1 µM; in [6], above 100 µM. Also, the total growth inhibition concentration (TGI) in [7] is above 100 µM; in test [8], above 100 µM; in test [9], above 100 µM; in [10], 38.2 µM; in test [11], above 100 µM.

Consider `CC(=O)OC1COC(Nn2c(=O)[nH]c3ccccc3c2=O)C(OC(C)=O)C1OC(C)=O` (stereo not drawn), for which the total growth inhibition concentration (TGI) in [1], in test [2], in test [3], in test [4], in test [5] and in test [6] was above 100 µM in each case. The TGI in test [7], in test [8], in test [9], in test [10] and in [11] was above 100 µM each time.

In the case of `CC(C)=CCC[C@H](C)[C@H]1CC[C@@H](C)c2cc(O)c(C)cc21`, the TGI came to 30.6 µM in test [1]; 68 µM in test [2]; 33.4 µM in test [3]; 32.9 µM in [4]; 36.7 µM in test [5]; 35.3 µM in test [6]. In addition, the TGI came to 30.7 µM in [7]; 31.3 µM in [8]; 31.6 µM in test [9]; 38.6 µM in test [10]; 32.8 µM in test [11].

As to `N=c1oc2c(Cl)cc(Cl)cc2cc1C(=O)Nc1ccccn1`, the total growth inhibition concentration (TGI) was 64.4 µM in test [1]; above 100 µM in test [2]; above 100 µM in test [3]; above 100 µM in test [4]; above 100 µM in test [5]; 57.5 µM in [6]. The total growth inhibition concentration (TGI) in [7] was above 100 µM; in [8], above 100 µM; in test [9], above 100 µM; in test [10] it was 46.1 µM; in test [11], above 100 µM.
